# According to publication PMC6784244 (Toxins, 2019):
# Conditions: pH 7.4
row,SMILES,"critical pressure of insertion, Cardiolipin"
1,"CC(C)[C@H]1OC(=O)[C@H](Cc2ccccc2)N(C)C(=O)[C@@H](C(C)C)OC(=O)[C@H](Cc2ccccc2)N(C)C(=O)[C@@H](C(C)C)OC(=O)[C@H](Cc2ccccc2)N(C)C1=O [BEA, Beauvericin]",--
2,CC[C@H](C)[C@H]1C(=O)O[C@H](C(C)C)C(=O)N(C)[C@@H]([C@@H](C)CC)C(=O)O[C@H](C(C)C)C(=O)N(C)[C@@H](C(C)C)C(=O)O[C@H](C(C)C)C(=O)N1C [ENN A1],48.57 mN/m
3,CC[C@H](C)[C@H]1C(=O)O[C@H](C(C)C)C(=O)N(C)[C@@H]([C@@H](C)CC)C(=O)O[C@H](C(C)C)C(=O)N(C)[C@@H]([C@@H](C)CC)C(=O)O[C@H](C(C)C)C(=O)N1C [ENN A],49.72 mN/m
4,CC[C@H](C)[C@H]1C(=O)O[C@H](C(C)C)C(=O)N(C)[C@@H](C(C)C)C(=O)O[C@H](C(C)C)C(=O)N(C)[C@@H](C(C)C)C(=O)O[C@H](C(C)C)C(=O)N1C [ENN B1],43.51 mN/m
5,CC(C)[C@H]1C(=O)O[C@H](C(C)C)C(=O)N(C)[C@@H](C(C)C)C(=O)O[C@H](C(C)C)C(=O)N(C)[C@@H](C(C)C)C(=O)O[C@H](C(C)C)C(=O)N1C [ENN B],33.29 mN/m
